This is an account of results in ChEMBL document CHEMBL4619751, “Synthesis of novel spirobibenzopyrans as potent anticancer leads inducing apoptosis in HeLa cells” (Bioorg Med Chem Lett, 2020).

Structures are written as SMILES. Activity calls are given as the source filed them. The calls are words filed in the database; no cut-off is given here.

The subject of experiment [1] is HeLa. Briefly: Cytotoxicity against human HeLa cells assessed as cell proliferation at 10 uM by MTT assay relative to control. Type of experiment: functional. The note with it: read-out: Activity.
For experiment [2], the system named is HeLa. Briefly: Cell cycle arrest in human HeLa cells assessed as accumulation at sub G0/G1 phase at 10 uM measured after 48 hrs by FACS analysis. Type of experiment: functional, cell-based.
In experiment [3] the test system is HeLa. Briefly: Cell cycle arrest in human HeLa cells assessed as accumulation at early G0/G1 phase at 10 uM measured after 48 hrs by FACS analysis. Type of experiment: functional, cell-based.
For experiment [4], the system named is HeLa. Briefly: Induction of apoptosis in human HeLa cells assessed as nuclear fragmentation by acridine oranga/ethidium bromide staining based assay. Type of experiment: functional, cell-based.
In experiment [5] the test system is HeLa. In words: Cytotoxicity against human HeLa cells assessed as growth inhibition by MTT assay. It is filed as functional, cell-based.
Experiment [6] relates to HeLa. In words: Induction of DNA damage in human HeLa cells assessed as tail DNA formation at IC50 by alkaline Comet assay. Type of experiment: functional.
The test system of experiment [7] is HeLa. Briefly: Induction of DNA damage in human HeLa cells assessed as inhibition of DNA replication. It is filed as functional, cell-based.
For experiment [8], the system named is HeLa. In words: Cell cycle arrest in human HeLa cells assessed as accumulation at S phase at 10 uM measured after 48 hrs by FACS analysis. It is filed as functional, cell-based.
Experiment [9] has as its system HeLa. In words: Induction of apoptosis in human HeLa cells assessed as chromatin condensation by acridine oranga/ethidium bromide staining based assay. Type of experiment: functional, cell-based.
Experiment [10] deals with HeLa. In words: Cell cycle arrest in human HeLa cells assessed as accumulation at S phase at 50 uM measured after 48 hrs by FACS analysis. Type of experiment: functional, cell-based.
Experiment [11] concerns HeLa. In words: Cell cycle arrest in human HeLa cells assessed as accumulation at sub G0/G1 phase at 50 uM measured after 48 hrs by FACS analysis. Type of experiment: functional, cell-based.
In experiment [12] the test system is HeLa. In words: Cell cycle arrest in human HeLa cells assessed as accumulation at middle G0/G1 phase at 10 uM measured after 48 hrs by FACS analysis. It is filed as functional, cell-based.

For the molecule `Clc1cc(Cl)c2c(c1)C=C1CCCCC3=Cc4cc(Cl)cc(Cl)c4OC13O2`, in the experiment on HeLa [1], the growth at 10 µM was found to be 102%.
Take `COc1ccc2c(c1)C=C1CCCCC3=Cc4cc(OC)ccc4OC13O2`: the result with HeLa [2], in the experiment on HeLa [3] and in the experiment on HeLa [4] was Active. In the experiment with HeLa [5], the IC50 came to 12.2 µM. The growth at 10 µM in the experiment with HeLa [1] was 59.3%.
Consider `Clc1ccc2c(c1)C=C1CSCC3=Cc4cc(Cl)ccc4OC13O2`, for which the growth at 10 µM with HeLa [1] came out at 105%.
Consider `O=c1[nH]cc(F)c(=O)[nH]1` [FLUOROURACIL], for which the Activity with HeLa [6] stood at 6.91 um. Also, the IC50 in the experiment with HeLa [5] came to 15 µM. For the same molecule, in the experiment on HeLa [1], the growth at 10 µM was found to be 73.7%.
With `Brc1ccc2c(c1)C=C1CCCCC3=Cc4cc(Br)ccc4OC13O2`, in the experiment with HeLa [1], the growth at 10 µM was found to be 111%.
`COc1ccc2c(c1)OC13Oc4cc(OC)ccc4C=C1CCCC3=C2`: the result in the experiment with HeLa [7], in the experiment with HeLa [8], with HeLa [2] and in the experiment on HeLa [9] was Active. In the experiment with HeLa [6], the Activity is on record as 3.32 um. The IC50 in the experiment with HeLa [5] turned out to be 13.6 µM. In addition, the growth at 10 µM with HeLa [1] turned out to be 62.1%.
With `COc1ccc2c(c1)C=C1CCCC3=Cc4cc(OC)ccc4OC13O2`, the outcome in the experiment with HeLa [10] and with HeLa [11] was inactive. The result in the experiment with HeLa [8], in the experiment on HeLa [2], with HeLa [12] and with HeLa [4] was Active. For the same molecule, in the experiment on HeLa [5], the IC50 was determined as 10.7 µM. Further, in the experiment on HeLa [1], the growth at 10 µM was 46.6%.
Take `Clc1ccc2c(c1)C=C1CCCCC3=Cc4cc(Cl)ccc4OC13O2`: the growth at 10 µM with HeLa [1] is 90.1%.
On to `Clc1ccc2c(c1)C=C1CCCC3=Cc4cc(Cl)ccc4OC13O2`, for which the growth at 10 µM with HeLa [1] turned out to be 105%.
As to `C1=C2CCCC3=Cc4ccccc4OC23Oc2ccccc21`, the growth at 10 µM in the experiment on HeLa [1] was determined as 77%.
Turning to `C1=C2CCCCC3=Cc4ccccc4OC23Oc2ccccc21`, the growth at 10 µM with HeLa [1] came to 80.2%.
Take `COc1ccc2c(c1)OC13Oc4cc(OC)ccc4C=C1CCCCC3=C2`: the growth at 10 µM in the experiment on HeLa [1] amounted to 108%.
